This is an account of results in ChEMBL document CHEMBL5726682, “Autotaxin inhibitor compounds” (2017).

A value given as a limit tells only on which side of the number the result lay.

As usually defined, the IC50 is the concentration needed to halve the response being measured.

The target in this assay is Autotaxin (Homo sapiens, UniProt Q13822). Description: Inhibition Assay: ATX activity is assayed in concentrated conditioned media from Hep3B human hepatocellular carcinoma cells by measuring the amount of choline released from the substrate, lysophosphatidylcholine (LPC) as it is cleaved to LPA. Conditioned media is collected from confluent Hep3B cells and concentrated 20-fold using Centriprep-30 filter devices (Millipore). To assay for autotaxin inhibition, 10-20 μL of the concentrated conditioned media is incubated with 2.5 μL of a test compound in DMSO and 72.5-82.5 μL lyso-PLD buffer (100 mM Tris pH 9, 500 mM NaCl, 5 mM MgCl2, 5 mM CaCl2, 0.05% Triton X-100 in the presence or absence of 0.2% fatty-acid-free human serum albumin) for 15 min at 37° C. After the 15 min incubation, 5 uL of 2 mM LPC (14:0; Avanti Polar Lipids Cat#855575C) diluted in lyso-PLD buffer is added for a final concentration of 100 uM and the incubation continues for 1.5-3 hours at 37° C. 100 μL of a color mix containing 4.5 mM 4-aminoantipyrine, 2.7 mM N-ethyl-N-(2-hydroxy-3-sulfopropyl)-m-toluidine, 21 units/ml horseradish peroxidase and 3 units/mL choline oxidase in 50 mM Tris, pH 8, 4.5 mM MgCl2 is added and the incubation continued for 15 minutes at room temperature before reading the absorbance at 555 nm.

Turning to `Cc1c(Sc2cccc(C(=O)O)c2)c2ccc(Cl)c(F)c2n1CC(=O)N1CCc2ccc(C(F)(F)F)cc21`, the IC50 is under 500 nM. To `Cc1c(Sc2cccc(C(=O)O)c2)c2ccc(Cl)c(F)c2n1CC(=O)N1CCc2c(F)cccc21` belongs under 500 nM. As for `Cc1c(Sc2cccc(C(=O)O)c2)c2ccc(Cl)c(F)c2n1CC(=O)N1CC2(CCN(C)CC2)C1`, the figure is under 500 nM; as for `Cc1c(Sc2cccc(C(=O)O)c2)c2ccc(Cl)c(F)c2n1CC(=O)N1CC2(CCN(C)CC2)c2ccccc21`, under 500 nM; as for `O=C(O)c1cccc(Sc2c(C3CC3)n(CC(=O)N3CCC(O)(C(F)(F)F)C3)c3c(F)c(Cl)ccc23)c1F` (centres undefined), under 500 nM. `Cc1c(Sc2cccc(C(=O)O)c2)c2ccc(Cl)c(F)c2n1CCC(=O)Nc1ccccc1`: the half-maximal inhibitory concentration (IC50) is under 500 nM.

On to `O=C(O)c1cccc(Sc2c(Cl)n(CC(=O)N3CC4(CC4)c4ccccc43)c3c(F)c(Cl)ccc23)c1F`, for which the IC50 is under 500 nM. As for `Cc1c(Sc2cccc(C(=O)O)n2)c2ccc(Cl)c(F)c2n1CC(=O)N1CCC(O)(C(F)(F)F)C1` (centres undefined), the figure is under 500 nM; as for `Cc1c(Sc2cccc(C(=O)O)c2)c2ccc(Cl)cc2n1C(=O)NCc1ccccc1`, over 3000 nM. As for `Cc1c(Sc2cccc(C(=O)O)n2)c2ccc(Cl)c(F)c2n1CC(=O)N1CCC2(CC1)CNC(=O)O2`, the figure is under 500 nM; as for `Cc1c(Sc2cccc(C(=O)O)c2)c2ccc(Cl)c(F)c2n1CC(=O)N1CCC2(COC2)C1`, under 500 nM; as for `O=C(O)c1cccc(Sc2c(Cl)n(CC(=O)N3CCC(O)(C(F)(F)F)C3)c3c(F)c(Cl)ccc23)c1F` (centres undefined), under 500 nM. Turning to `O=C(O)c1cccc(Sc2c(C3CC3)n(CC(=O)N3CC4(CCC4)c4ccccc43)c3c(F)c(Cl)ccc23)c1F`, the concentration for half-maximal inhibition (IC50) was under 500 nM. With `Cc1c(Sc2cccc(C(=O)O)c2)c2ccc(Cl)c(F)c2n1CC(=O)N1CCCCC1CCn1cccn1` (centres undefined), the IC50 is under 500 nM. As for `O=C(O)c1cccc(Sc2c(C3CC3)n(CCN3CC4(CCC4)c4ccccc43)c3c(F)c(Cl)ccc23)c1F`, the figure is under 500 nM.

On to `Cc1c(Sc2cccc(C(=O)O)c2F)c2ccc(Cl)c(F)c2n1CC(=O)N1CCC(C(C)(C)O)C1` (centres undefined), for which the IC50 is under 500 nM. To `Cc1c(Sc2cccc(C(=O)O)c2)c2ccc(Cl)c(F)c2n1CC(=O)N1CCC(C#N)C1` (centres undefined) belongs under 500 nM. To `O=C(O)c1cccc(Sc2c(C3CC3)n(CC(=O)N3CC4(CC4)c4ccccc43)c3c(F)c(Cl)ccc23)c1F` belongs under 500 nM; to `Cc1c(Sc2cccc(C(=O)O)c2)c2ccc(Cl)c(F)c2n1CC(=O)N1CCC(c2cnn(C)c2)CC1`, under 500 nM.
